We go through 19 molecules from patent US6274334A, “Monoclonal antibody, cell line and immunoassay for ractopamine” (The United States of America as represented by the …, priority 2000, dated 2001).

In data set [1] the test system is antibody produced by hybridoma 5G10. As to the kind of experiment: Competitive indirect ELISA for specificity of the 5G10 antibody (buffer). The class given is binding, mouse. The following applies: for IC50: means of three separate experiments on three different days, racemic ractopamine average of 15 experiments; for Cross-reactivity: ratio of IC50 for racemic ractopamine to that of test compound times 100; for poorer ligand relative to (1R,3R) stereoisomer of ractopamine: relative to (1R,3R) ractopamine; for competition curve: competitors up to 10,000 ng/mL. The protocol: The supernatant culture fluid from the cloned hybridomas may also be screened to select for those producing antibodies having a high affinity for ractopamine. Affinity may be measured using a variety of well known techniques, such as ELISA, RIA or equilibrium dialysis using labelled ractopamine. Competitive indirect ELISA (CI-ELISA) is preferred, and is conducted at a final antibody concentration (dilution from tissue culture supernatant) to give 50% of maximal binding to a ractopamine coated substrate or assay well. In accordance with this embodiment, the antibody containing supernatant is added to a ractopamine conjugate-coated solid substrate such as the wells of an assay plate, together with a range of concentrations of free ractopamine as a competitor. Following incubation and washing, bound antibody in the wells is determined in the same manner as the indirect-ELISA. Percent inhibition may be calculated as (1-B/B0)×100 where B is the optical density (OD) of a well with a competitor and B0 is the mean OD of the wells without competitor (control). […] However, for even greater accuracy, the affinity may be alternatively measured at 50% inhibition (IC50).
(§1) The checkerboard method was used to determine the optimum amount of coating antigen-ractopamine-glutarate-BSA (0.1 to 1 μg/well), primary antibody (1:4000 to 1:14,000), and secondary antibody (1:5000 to 1:50,000) required for the indirect competition ELISA. […] Ninety-six well flat bottom ELISA plates were coated with 500 ng/well of ractopamine-glutarate-BSA in 50 mM bicarbonate buffer, pH 9.6, and allowed to shake for 2 hours using an orbital shaker after which the plates were washed 5 times with PBST. Excess binding sites in each well were blocked by incubating with a 1% solution of Teleostean® cold water fish gelatin for 1 hour after which each well was washed 5 times with PBST. Primary antibody (5G10), diluted to 1:14,000, was added (50 μL/well) in the presence of competitor (100 μL/well) and was incubated for 1.5 hours. Competitors were incubated at concentrations of 0, 0.1, 0.5, 1, 5, 10, 50, 100, 500, 1000, 5000, and 10,000 ng/mL. A racemic ractopamine calibration curve was used in every experiment as a quality control. Washing wells five times with PBST terminated the reactions. Goat anti-mouse IgG peroxidase conjugate, diluted 1:50,000 (100 μL/well), was incubated for 1 hour. A TMB substrate solution was used during color development (30 min); the color development was stopped by adding 50 μL/well of 2 N H2 SO4. All incubations were conducted at 37° C. The plates were read at 450 nm and the data analyzed using a four-parameter logistic equation for the competitors that produced competition curves.

In another data set the test system is 5G10 monoclonal antibody. The data set can be described thus: Competitive ELISA in diluted bovine urine (matrix effects). The class given is binding, mouse. As to the method:
as §1
Ractopamine (0, 0.1, 0.5, 1, 5, 10, 50, 100, 500, 1000, 5000, and 10,000 ng/mL) was added to bovine urine samples diluted 1:2, 1:5, 1:10, and 1:20 with PBST. Urine was collected from a Holstein cow that had not received any ractopamine treatment. Immunoassays in diluted matrices were run according to the procedure described in Example 2. The resulting competition data were fit to a four-parameter logistic equation using the program manager provided by the plate reader (Bio-Rad® Laboratories, Hercules, Calif.) and the IC50 values were determined. The IC50 and B0 from each diluted urine curve were compared with IC50 and B0 values generated from the PBST standard curve. Ractopamine in a 1:10 urine dilution at concentrations of 1, 5, 10, 20 ng/mL were divided and stored at -20° C. until used. For determination of intra-assay variation, each concentration of the spiked urine samples was pipetted into 12 wells, along with the appropriate standard curve ([…], 12 levels) and the data processed using the spiked samples as replicated unknowns. Inter-assay variation was determined in a similar manner on five separate days with duplicate wells for each level of spiked sample.

For data set [2] the following is noted: Wicker et al. 1995; cited from earlier work.
For another data set, the system named is polyclonal antibodies. The note with it: polyclonal antibodies generated from rabbits; cited from earlier work.
A further data set relates to hogs. The note with it: dietary, relative to untreated control animals; cited from earlier work.
In a further data set the test system is ractopamine antibody. As to the kind of experiment: Immunoaffinity column retention. The data set is classed as binding, mouse. The following applies: C-14 labeled, eluted with 0-100% MeOH. As to the method:
Ten milliliters of acites containing ractopamine antibody were diluted with 0.1 M acetate buffer (1:3) and centrifuged. The diluted ascites was passed through a protein-G column and non-bound material was washed off with 0.1 M acetate buffer, pH 5.0, followed by 0.1 M glycine, pH 2.8 to elute the IgG. The protein concentration was determined by OD280 and confirmed by the method of Bradford. The IgG purity was confirmed by 10% SDS-PAGE. Purified IgG was conjugated with CNBr-Sepharose according to a standard procedure. Five milligrams of IgG was conjugated with 1 mL of CNBr-Sepharose to produce the immunoaffinity beads. The immunoaffinity beads were packed to a screening column. A solution containing approximately equal amounts of C-14 labeled ractopamine and ractopamine glucuronide was applied to the column. The column was subsequently eluted with 0, 10%, 30%, 50%, 70% and 100% MeOH; eluants were collected and counted for C-14 activity to verify recoveries. […] Thus, the ractopamine IAC retained both ractopamine and ractopamine metabolites, and has the potential to be used for the rapid isolation of ractopamine and (or) ractopamine metabolites from solution. Such a technique would have wide application in the preparation of samples undergoing a ractopamine confirmatory assay.

For data set [3] the following is noted: in words; cited from earlier work.
The conditions of data set [4]: species dosed with ractopamine HCl; cited from earlier work.

Values joined by “and” are separate entries in the source; they are usually repeats but may differ in a detail not shown here. Equal entries are not always repeated. Structures can show the parent of a compound that is named as a salt.

On to `CC(CCc1ccc(O)cc1)NCCc1ccc(O)c(O)c1` (racemic) [Dobutamine], for which, in data set [1], the IC50 was found to be 50.3 ± 8.1 ng/mL and the Cross-reactivity was 5.3%.

On to `CC(CCc1ccc(O)cc1)NCC(O)c1ccc(O)cc1` (racemic) [Ractopamine (racemic), (1R*, 3R*), (1R*, 3S*)-4-hydroxy-β-[[[3-(4-hydroxyphenyl)-1-methylpropyl]amino]methyl]-benzenemethanol hydrochloride], for which the concentration for half-maximal inhibition (IC50) in the data set with 5G10 monoclonal antibody (buffer (PBST)) was 2.49 ng/mL; with 5G10 monoclonal antibody (urine dilution 1:2), 11.58 ng/mL; in the data set on 5G10 monoclonal antibody (urine dilution 1:5), 4.62 ng/mL; with 5G10 monoclonal antibody (urine dilution 1:10) it was 3.16 ng/mL; in the data set on 5G10 monoclonal antibody (urine dilution 1:20), 3.02 ng/mL; in the data set on polyclonal antibodies, 4.2 ng/mL. Also, the IC50 in data set [1] (hydrochloride) was determined as 2.69 ± 0.36 ng/mL; in data set [1] (listed as racemic ractopamine, hydrochloride), 2.7 ng/mL. The “cross-reaction in immunoassay kits” value in data set [2] is on record as “cross-react poorly with ractopamine”. For the same molecule, the “growth and carcass effects” value in the data set on hogs was “increased growth rates, feed efficiencies, and greater yields of boneless, closely trimmed retail cuts”. The “retention on immunoaffinity column” value in the data set with ractopamine antibody is “The radioactivity was mainly in the 50% and 100% MeOH fractions”. For the same molecule, the limit of detection in data set [1] (80% B/B0 (IC20)) is given as 0.5 ng/mL. Moreover, the Cross-reactivity in data set [1] came out at 100%.

For `CC(CCc1ccc(O[C@@H]2O[C@H](C(=O)O)[C@@H](O)[C@H](O)[C@H]2O)cc1)NCC(O)c1ccc(O)cc1` (single isomer, unassigned) [Ractopamine glucuronide A], in data set [1], the IC50 was 263 ± 20 ng/mL, the Cross-reactivity is 1% and the “poorer ligand relative to (1R,3R) stereoisomer of ractopamine” value is given as “over 100 times”.

For `CC(CCc1ccc(O[C@@H]2O[C@H](C(=O)O)[C@@H](O)[C@H](O)[C@H]2O)cc1)NCC(O)c1ccc(O)cc1` (single isomer, unassigned) [Ractopamine glucuronide B], in data set [1], the IC50 is given as 87.8 ± 5.0 ng/mL, the Cross-reactivity was 3.1% and the “poorer ligand relative to (1R,3R) stereoisomer of ractopamine” value is recorded as “over 100 times”.

As to `C[C@H](CCc1ccc(O)cc1)NC[C@H](O)c1ccc(O)cc1` [(1R, 3R) -ractopamine], the biological activity result in data set [3] is “confers biological activity to the molecule”. For the same molecule, the detection limit in data set [1] (in PBST) was 0.1 ng/mL. In data set [1], the IC50 is on record as 0.55 ± 0.09 ng/mL and the Cross-reactivity worked out at 489%.

Take `C[C@@H](CCc1ccc(O)cc1)NC[C@H](O)c1ccc(O)cc1` [(1R, 3S) -ractopamine]: in data set [1], the IC50 worked out at 291 ± 32 ng/mL and the Cross-reactivity came to 0.9%. Also, in data set [1] (α-methyl group in (S) configuration), the “decrease of antibody binding (factor)” value worked out at 100.

As to `C[C@H](CCc1ccc(O)cc1)NC[C@@H](O)c1ccc(O)cc1` [(1S, 3R) -ractopamine], in data set [1], the IC50 was 2.00 ± 0.37 ng/mL and the Cross-reactivity amounted to 134%.

As to `C[C@@H](CCc1ccc(O)cc1)NC[C@@H](O)c1ccc(O)cc1` [(1S, 3S) -ractopamine], in data set [1], the IC50 amounted to 140 ± 23 ng/mL and the Cross-reactivity is given as 1.9%.

As for `CCCCNCC(O)c1ccc(O)cc1` (stereo not drawn) [Bamethane], in data set [1], the IC50 amounted to 831 ± 11 ng/mL and the Cross-reactivity stood at 0.3%.

In the case of `CC(C)(C)NCC(O)c1cc(Cl)c(N)c(Cl)c1` (stereo not drawn) [Clenbuterol], in data set [1], the competition curve entry was “did not produce competition curves” and the Cross-reactivity is < 0.1%. Also, the “cross reaction with the 5G10 antibody” value in data set [1] (in words) is given as “did not cross react with the 5G10 antibody”.

In the case of `CC(Cc1ccc(O)cc1)NCC(O)c1cc(O)cc(O)c1` (stereo not drawn) [Fenoterol], in data set [1], the IC50 stood at 2682 ± 350 ng/mL and the Cross-reactivity is given as 0.1%.

With `CC(COc1ccccc1)NC(C)C(O)c1ccc(O)cc1` (stereo not drawn) [Isoxsuprine], in data set [1], the concentration for half-maximal inhibition (IC50) is 1391 ± 127 ng/mL and the Cross-reactivity stood at 0.2%.

Turning to `COc1ccc(C(O)CNC(C)CCc2ccc(O)cc2)cc1` (stereo not drawn) [LY227273], in data set [1], the IC50 was 2.6 ng/mL and 2.62 ± 0.08 ng/mL; the Cross-reactivity is recorded as 103%.

Take `C[C@H](CCc1ccc(O)cc1)NCCc1ccc(O)cc1` [R-des-OH-ractopamine]: in data set [1], the IC50 is recorded as 1.59 ± 0.09 ng/mL and the Cross-reactivity is recorded as 169%.

Consider `CC(CCc1ccc(O)cc1)NCC(O)c1ccc(O[C@@H]2O[C@H](C(=O)O)[C@@H](O)[C@H](O)[C@H]2O)cc1` (stereo partly drawn) [Ractopamine glucuronide C], for which, in data set [4], the identification as metabolite result is on record as “has been identified in various species dosed experimentally with ractopamine HCl”. Besides, the “affinity relative to (1R,3R) ractopamine” value in data set [1] (in words) is “bound to the antibody with an affinity almost as great as (1R,3R) ractopamine”. In data set [1], the IC50 is 0.70 ± 0.04 ng/mL and the Cross-reactivity is reported as 384%.

For the molecule `CC(NCCc1ccc(O)cc1)C(O)c1ccc(O)cc1` (stereo not drawn) [Ritodrine], in data set [1], the IC50 is given as 73.8 ± 4.4 ng/mL and the Cross-reactivity amounted to 3.6%.

As to `C[C@@H](CCc1ccc(O)cc1)NCCc1ccc(O)cc1` [S-des-OH-ractopamine], in data set [1], the IC50 was 25.2 ± 1.9 ng/mL and the Cross-reactivity is reported as 10.7%.

As to `CC(C)(C)NCC(O)c1ccc(O)c(CO)c1` (stereo not drawn) [Salbutamol], in data set [1], the competition curve entry is listed as “did not produce competition curves” and the Cross-reactivity was < 0.1%.

In the case of `OCc1cc(C(O)CNCCCCCCOCCCCc2ccccc2)ccc1O` (stereo not drawn) [Salmeterol], in data set [1], the half-inhibitory concentration (IC50) is reported as 1519 ± 116 ng/mL and the Cross-reactivity stood at 0.2%.
